Molecular target: T1, Cholesteryl ester transfer protein (Homo sapiens, UniProt P11597)
T1 sequence (P11597 whole entry): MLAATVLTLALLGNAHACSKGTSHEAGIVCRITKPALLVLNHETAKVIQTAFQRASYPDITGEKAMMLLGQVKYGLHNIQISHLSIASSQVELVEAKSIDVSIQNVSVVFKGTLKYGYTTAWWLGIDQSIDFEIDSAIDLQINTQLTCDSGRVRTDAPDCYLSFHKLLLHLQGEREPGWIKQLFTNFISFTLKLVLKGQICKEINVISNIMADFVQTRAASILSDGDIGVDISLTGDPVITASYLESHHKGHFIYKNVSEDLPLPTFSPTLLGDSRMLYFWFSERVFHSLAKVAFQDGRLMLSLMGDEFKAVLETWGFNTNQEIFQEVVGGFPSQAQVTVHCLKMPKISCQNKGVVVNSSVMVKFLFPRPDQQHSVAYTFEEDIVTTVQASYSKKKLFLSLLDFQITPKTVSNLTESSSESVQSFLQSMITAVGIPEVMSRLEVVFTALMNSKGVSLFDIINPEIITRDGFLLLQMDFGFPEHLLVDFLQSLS
Assay: Cholesteryl Ester Transfer Assay: As a protein source for cholesteryl ester transfer, plasma from healthy persons was used, and as a cholesteryl ester receptor, LDL from healthy persons was used. Samples were treated with each test compound to final concentrations of 16, 80, 400, 2000 and 10000 nM and analyzed in duplicate. For the cholesteryl ester transfer test, 20 μl of plasma, 50 μl of LDL (0.25 mg/ml) and 50 μl of rHDL-agarose (0.25 mg/ml) were added, and a solution containing a test compound was added, followed by reaction at 37° C. Then, centrifugation was performed at 4° C. for 3 minutes to stop the reaction, and 150 μl of the supernatant was taken and transferred to a 96-well plate for radioactivity measurement, and the radioactivity of the plate was measured with a beta-ray detector.
Assay type: cell-free

| IC50 | Compound |
| --- | --- |
| 0.0123 µM | COc1cc(C(F)(F)F)c(-c2ccc(C(=O)O)cc2Cl)cc1C1=C(CN2C(=O)O[C@H](c3cc(C(F)(F)F)cc(C(F)(F)F)c3)[C@@H]2C)CC(C)(C)CC1 |
| 0.0091 µM | COc1cc(C(F)(F)F)c(-c2ccc(C(=O)O)cc2F)cc1C1=C(CN2C(=O)O[C@H](c3cc(C(F)(F)F)cc(C(F)(F)F)c3)[C@@H]2C)CC(C)(C)CC1 |
